Experimental data published in patent US20100113460A1, “Organic Compounds” (Givaudan SA, priority 2007, published 2010).

biological target: T1, CYP2A13 (Homo sapiens, UniProt Q16696); assay: CYP2A13 inhibition, coumarin to 7-hydroxy-coumarin (Umbelliferone) fluorescence assay in microsomes; conditions: not given
T1 sequence (Q16696 1-494): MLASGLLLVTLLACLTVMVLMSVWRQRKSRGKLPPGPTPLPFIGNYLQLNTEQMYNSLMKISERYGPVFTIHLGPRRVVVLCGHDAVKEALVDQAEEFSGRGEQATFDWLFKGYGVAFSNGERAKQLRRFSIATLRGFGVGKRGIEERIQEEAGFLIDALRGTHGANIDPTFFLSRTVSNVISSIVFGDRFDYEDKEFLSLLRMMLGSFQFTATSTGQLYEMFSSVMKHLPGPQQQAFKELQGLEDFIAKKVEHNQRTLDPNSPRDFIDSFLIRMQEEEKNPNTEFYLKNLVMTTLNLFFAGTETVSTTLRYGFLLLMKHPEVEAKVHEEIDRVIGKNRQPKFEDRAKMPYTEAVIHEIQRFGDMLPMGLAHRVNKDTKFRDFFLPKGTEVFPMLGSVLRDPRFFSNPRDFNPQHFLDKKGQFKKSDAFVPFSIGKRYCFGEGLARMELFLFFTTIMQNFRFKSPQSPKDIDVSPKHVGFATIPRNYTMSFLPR

Structure (SMILES)	IC50 [µM]
CCC=CCCC1(C)CCC(=O)O1 (mixture of isomers) [Compound ID 62, (E/Z)-5-(hex-3-enyl)-5-methyldihydrofuran-2(3H)-one]	12.5
c1nc2c([nH]1)CCCCCCCCC2 [Compound ID 35, 1,4,5,6,7,8,9,10,11,12-decahydrocycloundeca[d]imidazole]	5
O=C1CCCCCCCCCCCN1 [Compound ID 36, azacyclotridecan-2-one]	5.2
CCCCCC1C(=O)CCC1CC(=O)OC (stereo not drawn) [Compound ID 37, methyl 2-(3-oxo-2-pentylcyclopentyl)acetate]	5.2
c1cnc2c(n1)CCCCCCCCCC2 [Compound ID 42, 5,6,7,8,9,10,11,12,13,14-decahydrocyclododeca[b]pyrazine]	6.1
c1nnc2n1CCCCCCCCCCC2 [Compound ID 43, 6,7,8,9,10,11,12,13,14,15-decahydro-5H-[1,2,4]triazolo[4,3-a][1]azacyclotridecine]	6.3
O=C1CCC2CCCCC2O1 (stereo not drawn) [Compound ID 45, octahydrocoumarin]	6.6
CCCCCCC1CCC(=O)O1 (stereo not drawn) [Compound ID 47, 5-hexyldihydrofuran-2(3H)-one]	7.2
CCCCCCN1C(=O)CCC1C (stereo not drawn) [Compound ID 48]	7.4
CCOC(=O)CCCn1ccnc1 [Compound ID 49, ethyl 4-(1H-imidazol-1-yl)butanoate]	7.7
CCCCCC1C(=O)C(C)CC1C(=O)OC (stereo not drawn) [Compound ID 50, Methyl 4-methyl-3-oxo-2-pentylcyclopentanecarboxylate]	7.8

Now from value to molecule:

IC50 [µM]	Structure (SMILES)
4.8	CCCCCC1C(=O)CCC1C (stereo not drawn) [Compound ID 32, 3-methyl-2-pentylcyclopentanone]
4.6	CCCCCCC1(C)CCC(=O)O1 (stereo not drawn) [Compound ID 31, 5-hexyl-5-methyldihydrofuran-2(3H)-one]
4.5	CCCCCCC1=CCCC1=O [Compound ID 30, 2-hexylcyclopent-2-enone]
4.3	CCC1CCC2(CCC(=O)O2)CC1 (stereo not drawn) [Compound ID 29, 8-ethyl-1-oxaspiro[4.5]decan-2-one]
4.2	CCCCCCC1CCCC1=O (stereo not drawn) [Compound ID 27, 2-hexylcyclopentanone]
3.7	c1ncc2c(n1)CCCCCCCC2 [Compound ID 26, 5,6,7,8,9,10,11,12-octahydrocyclodeca[d]pyrimidine]
3.5	c1cnc2c(c1)CCCCCCCCCC2 [Compound ID 24, 5,6,7,8,9,10,11,12,13,14-decahydrocyclododeca[b]pyridine]
3.5	CC/C=C\C[C@@H]1C(=O)CC[C@@H]1CC(=O)OC [Compound ID 25, (Z)-methyl 2-(3-oxo-2-(pent-2-enyl)cyclopentyl)acetate]
3.3	CC/C=C\CC1CCCC(=O)O1 (stereo not drawn) [Compound ID 22, (Z)-6-(pent-2-enyl)tetrahydro-2H-pyran-2-one]
3	CCCCCN1C(=O)CC[C@H]1C(=O)OCC [Compound ID 19]
2.8	CC/C=C\CC1C(=O)CCC1C (stereo not drawn) [Compound ID 17]
2.8	CCCCC/C=C/CC1CCCC1=O (stereo not drawn) [Compound ID 18, (E)-2-(oct-2-enyl)cyclopentanone]
2	c1nc2c(o1)CCCCCCCCC2 [Compound ID 14, 5,6,7,8,9,10,11,12-octahydro-4H-cycloundeca[d]oxazole]
1.7	CCCCCC1OC(=O)CC1C (stereo not drawn) [Compound ID 12, 4-methyl-5-pentyldihydrofuran-2(3H)-one]
1.4	CCCCCC12CC1(C)CCC2=O (stereo not drawn) [Compound ID 8]
1.2	CCCCCC1=C(C)CCC1=O [Compound ID 7, 2-pentyl-3-methylcyclopent-2-enone]

same assay, conditions: read-out: CYP2A13 inhibitor activity IC50; substrate coumarin 0.006 mM, 60 min at 37° C.

IC50 [µM]	Structure (SMILES)
5.6	CC(C)CCn1ccnc1 [Compound ID 39, 1-isopentyl-1H-imidazole]
5.7	CC(C)=CCn1ccnc1 [Compound ID 40, 1-(3-methylbut-2-enyl)-1H-imidazole]
6.8	CC/C=C/CCn1ccnc1 [Compound ID 46, (E)-1-(hex-3-enyl)-1H-imidazole]
